Laboratory results published in patent US12458700B2, “Amine-containing transfection reagents and methods for making and using same” (Life Technologies Corporation, priority 2010, dated 2025).

System: CSNK2A1
Test: CSNK2A1 siRNA knockdown by qPCR in Hela, primary cortical neurons and primary hippocampal neurons
Type: cell-based, human, rat
Settings: lipoplex with cholesterol 1:0.5, 30 nM siRNA, 24 h, FIG. 5
From the text: Some lipids of the present invention were formulated into lipid compositions, which also comprise cholesterol or DOPE, buffers and ethanol. Animal origin-free cholesterol was purchased from Sigma-Aldrich (St Louis, MO) and DOPE was purchased from Avanti Lipids (Alabaster, AL). Silencer® Select CSNK2A1 siRNA and Silencer® Select negative control siRNA (cat #4390824 siRNA id#s3637 and cat #4390843) having the antisense sequence […] (SEQ ID NO:2) and […] (SEQ ID NO:3), respectively, were resuspended with nuclease-free water to a stock concentration of 50 μM, which were further diluted to meet downstream experiments and is commercially available from Life Technologies (Carlsbad, CA).
For compounds 83 and 67, the dry powder lipids were re-suspended in ethanol at a final concentration of 1 mg/ml and either used as lipid alone (Compound 83) or combined with cholesterol in 1:0.5 ratio (Compound 67). The formulations tested were made as described in Table 3
Primary rat cortex neuronal cells were purchased from GIBCO (Cat. No. A10840) and maintained in Neurobasal™ medium (cat #21103-049) supplemented with 2% B-27® Serum-free (50× cat #17504-044) and 0.5 mM GlutaMAX™ (cat #35050-061). […]

CCCCCCCCCCCCNC(=O)CNCCCN(CCCCNCCCN(CC(=O)NCCCCCCCCCCCC)CC(=O)NCCCCCCCCCCCC)CC(=O)NCCCCCCCCCCCC [Compound 67]
relative percent of CSNK2A1 remaining activity normalized to negative control: do possess activity in vitro
